From PubChem BioAssay AID192 (DTP/NCI, 2004) come the findings set out here.

In this assay the test system is BDF1 mice, B16 melanoma ip, median survival T/C. Kind of assay: NCI In Vivo Anticancer Drug Screen. Data for tumor model B16 Melanoma (intraperitoneal) in B6D2F1 (BDF1) mice. The note with it: endpoint: median survival time, higher = longer survival. An outline of the steps:
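Survival or tumor size is measured after treatment of tumor-bearing mice and normalised to the vehicle-treated control group.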

The mark [1] stands for this setting: dose: 3.12 mg/kg/injection, schedule: Q01DX009 (ip), vehicle: Klucel (hydroxypropylcellulose) (HPC).
Where [2] appears, read: dose: 25.0 mg/kg/injection, schedule: Q01DX009 (ip), vehicle: Klucel (hydroxypropylcellulose) (HPC).
[3] abbreviates: dose: 50.0 mg/kg/injection, schedule: Q01DX009 (ip), vehicle: Klucel (hydroxypropylcellulose) (HPC).
Setting [4] is: dose: 100.0 mg/kg/injection, schedule: Q01DX009 (ip), vehicle: Klucel (hydroxypropylcellulose) (HPC).
The mark [5] stands for this setting: dose: 50.0 mg/kg/injection, schedule: Q01DX009 (ip), vehicle: saline.
Setting [6] is: dose: 100.0 mg/kg/injection, schedule: Q01DX009 (ip), vehicle: saline.
Setting [7] is: dose: 200.0 mg/kg/injection, schedule: Q01DX009 (ip), vehicle: saline.
Setting [8] is: dose: 200.0 mg/kg/injection, schedule: Q01DX009 (ip), vehicle: Klucel (hydroxypropylcellulose) (HPC).
Setting [9] is: dose: 50.0 mg/kg/injection, schedule: Q01DX009 (ip), vehicle: saline with Tween-80.
Where [10] appears, read: dose: 100.0 mg/kg/injection, schedule: Q01DX009 (ip), vehicle: saline with Tween-80.
[11] abbreviates: dose: 200.0 mg/kg/injection, schedule: Q01DX009 (ip), vehicle: saline with Tween-80.
[12] abbreviates: dose: 400.0 mg/kg/injection, schedule: Q01DX009 (ip), vehicle: Klucel (hydroxypropylcellulose) (HPC).

SMILES strings stand for the structures. Several values for one entry are separate records, joined by “and”; a condition that tells them apart may be missing. Identical values can stand only once. Inconclusive results and toxic doses are left out.

Turning to `COC12C(COC(=O)NCCO)C3=C(C(=O)C(C)=C(N)C3=O)N1CC1NC12` (stereo not given), the T/C (dose: 1.56 mg/kg/injection, schedule: Q01DX009 (ip), vehicle: Klucel (hydroxypropylcellulose) (HPC)) is 98 % of control; the T/C under setting [1] was 116 % of control and 120 % of control and 124 % of control; the T/C (dose: 6.25 mg/kg/injection, schedule: Q01DX009 (ip), vehicle: saline) is 119 % of control; the T/C under setting [2] is 88 % of control and 180 % of control and 209 % of control; the T/C (dose: 25.0 mg/kg/injection, schedule: Q01DX009 (ip), vehicle: saline) was 94 % of control.
Turning to `Cc1cccc(C(N)=S)n1`, the T/C is 110 % of control under setting [3] and 100 % of control under setting [4].
Turning to `CN(C)CCCCO`, the T/C under setting [5] was 96 % of control, the T/C under setting [6] is 96 % of control and the T/C under setting [7] is 89 % of control.
Take `Oc1c(Br)cc(Br)cc1/C=N/N=C/c1cc(Br)cc(Br)c1O`: the T/C under setting [4] was 90 % of control and the T/C under setting [8] is 87 % of control.
With `Clc1ccc2c(c1)/C(=C/c1ccccc1Cl)c1cc(Cl)cc(Cl)c1-2`, the T/C (dose: 6.25 mg/kg/injection, schedule: Q01DX009 (ip), vehicle: saline with Tween-80) was 90 % of control and the T/C (dose: 12.5 mg/kg/injection, schedule: Q01DX009 (ip), vehicle: saline with Tween-80) is 88 % of control.
Regarding `ClCC1C(CCl)C2(Cl)C(Cl)=C(Cl)C1(Cl)C2(Cl)Cl` (stereo not given), the T/C is 92 % of control under setting [9], 93 % of control under setting [10] and 92 % of control under setting [11].
On to `CC12CC3OC(=O)C1COC14OC5(C2C1=O)C(O)(CCC1C4CC(O)C2(O)CC=CC(=O)C12C)C(=O)OC35C` (stereo not given), for which the T/C is 120 % of control (dose: 3.0 mg/kg/injection, schedule: Q01DX009 (ip), vehicle: Klucel (hydroxypropylcellulose) (HPC)); 98 % of control and 124 % of control (dose: 6.0 mg/kg/injection, schedule: Q01DX009 (ip), vehicle: Klucel (hydroxypropylcellulose) (HPC)); 110 % of control and 118 % of control (dose: 12.0 mg/kg/injection, schedule: Q01DX009 (ip), vehicle: Klucel (hydroxypropylcellulose) (HPC)); 113 % of control and 120 % of control (dose: 24.0 mg/kg/injection, schedule: Q01DX009 (ip), vehicle: Klucel (hydroxypropylcellulose) (HPC)); 120 % of control (dose: 48.0 mg/kg/injection, schedule: Q01DX009 (ip), vehicle: Klucel (hydroxypropylcellulose) (HPC)).
Consider `C[N+](C)(C)c1nc(N)nc2c1ncn2C1OC(CO)C(O)C1O` (stereo not given), for which the T/C was 106 % of control under setting [5], 103 % of control under setting [6] and 109 % of control under setting [7].
Take `Cc1cc(=O)n2c3c(cc(C#N)cc13)OC2`: the T/C runs as follows: (dose: 100.0 mg/kg/injection, schedule: Q04DX003 (ip), vehicle: Klucel (hydroxypropylcellulose) (HPC)) 92 % of control; (dose: 200.0 mg/kg/injection, schedule: Q04DX003 (ip), vehicle: Klucel (hydroxypropylcellulose) (HPC)) 95 % of control; (dose: 400.0 mg/kg/injection, schedule: Q04DX003 (ip), vehicle: Klucel (hydroxypropylcellulose) (HPC)) 92 % of control.
`CC1(C)N=C(N)N=C(N)N1c1cccc(OCCOc2ccc([N+](=O)[O-])cc2)c1`: the T/C under setting [2] is 101 % of control, the T/C under setting [3] was 102 % of control, the T/C under setting [4] was 100 % of control and the T/C under setting [8] is 102 % of control.
Take `COc1cc2cc(c1Cl)N(C)C(=O)C[C@H](OC(=O)[C@H](C)N(C)C(C)=O)[C@]1(C)O[C@H]1[C@H](C)[C@@H]1C[C@@](O)(NC(=O)O1)[C@H](OC)C=C/C=C(\C)C2`: the T/C is 110 % of control (dose: 0.5 micrograms/kg/injection, schedule: Q01DX009 (ip), vehicle: saline); 163 % of control (dose: 1.0 micrograms/kg/injection, schedule: Q01DX009 (ip), vehicle: saline + alcohol); 117 % of control (dose: 2.0 micrograms/kg/injection, schedule: Q01DX009 (ip), vehicle: saline); 95 % of control (dose: 2.0 micrograms/kg/injection, schedule: Q04DX003 (ip), vehicle: saline); 105 % of control (dose: 4.0 micrograms/kg/injection, schedule: Q01DX009 (ip), vehicle: saline); 100 % of control (dose: 4.0 micrograms/kg/injection, schedule: Q04DX003 (ip), vehicle: saline). The T/C (dose: 8.0 micrograms/kg/injection, schedule: Q01DX009 (ip), vehicle: saline) was 155 % of control; the T/C (dose: 8.0 micrograms/kg/injection, schedule: Q04DX003 (ip), vehicle: saline) is 97 % of control; the T/C (dose: 16.0 micrograms/kg/injection, schedule: Q01DX009 (ip), vehicle: saline) was 157 % of control; the T/C (dose: 16.0 micrograms/kg/injection, schedule: Q04DX003 (ip), vehicle: saline) was 108 % of control; the T/C (dose: 32.0 micrograms/kg/injection, schedule: Q01DX009 (ip), vehicle: saline) was 97 % of control; the T/C (dose: 32.0 micrograms/kg/injection, schedule: Q04DX003 (ip), vehicle: saline) was 100 % of control.
In the case of `Nc1nc(-c2ccccc2N=NN2CCN(N=Nc3ccccc3-c3nc(N)c4ccccc4n3)CC2)nc2ccccc12`, the T/C is, setting by setting: under setting [1], 95 % of control; (dose: 6.25 mg/kg/injection, schedule: Q01DX009 (ip), vehicle: Klucel (hydroxypropylcellulose) (HPC)) 92 % of control; (dose: 12.5 mg/kg/injection, schedule: Q01DX009 (ip), vehicle: Klucel (hydroxypropylcellulose) (HPC)) 107 % of control; under setting [2], 107 % of control; under setting [3], 113 % of control.
As to `C/C=C/CNc1ccccc1`, the T/C is, setting by setting: under setting [9], 101 % of control; under setting [10], 94 % of control.
As to `O=C(O)c1ccc(C(Cl)(Cl)Cl)cc1`, the T/C is 105 % of control (dose: 25.0 mg/kg/injection, schedule: Q01DX009 (ip), vehicle: saline with Tween-80); 103 % of control under setting [9]; 98 % of control under setting [10].
As to `O.O.[NH-]C1CCCCC1[NH-].[Pt+2]` (stereo not given), the T/C (dose: 0.62 mg/kg/injection, schedule: Q01DX009 (ip), vehicle: dextrose) is 91 % of control and 111 % of control; the T/C (dose: 1.25 mg/kg/injection, schedule: Q01DX009 (ip), vehicle: dextrose) was 118 % of control; the T/C (dose: 1.25 mg/kg/injection, schedule: Q01DX009 (ip), vehicle: other) was 120 % of control; the T/C (dose: 2.5 mg/kg/injection, schedule: Q01DX009 (ip), vehicle: dextrose) was 124 % of control; the T/C (dose: 2.5 mg/kg/injection, schedule: Q01DX009 (ip), vehicle: other) is 120 % of control; the T/C (dose: 10.0 mg/kg/injection, schedule: Q01DX009 (ip), vehicle: other) is 155 % of control.
Regarding `c1ccc(CSSCc2ccccc2)cc1`, the T/C was 113 % of control under setting [4], 114 % of control under setting [8] and 108 % of control under setting [12].
In the case of `C=Cc1cc(OC)c2c(c1)c(=O)oc1c2cc(OC)c2c(O)ccc(C3OC(C(C)O)C(O)C3O)c21` (stereo not given), the T/C by setting is: under setting [4], 159 % of control; under setting [12], 113 % of control.
For the compound `OC(c1ccccc1)C1(c2ccccc2)OCCO1` (stereo not given), the T/C is, setting by setting: under setting [10], 100 % of control; under setting [11], 95 % of control; (dose: 400.0 mg/kg/injection, schedule: Q01DX009 (ip), vehicle: saline with Tween-80) 90 % of control.
With `CCOC(=O)C(CC)c1ccccc1` (stereo not given), the T/C reads like this: under setting [9], 91 % of control; under setting [10], 95 % of control.
